Drawing on the RepoRT retention time repository (doi:10.1016/j.jchromb.2020.122105), this text covers LC retention time for five compounds.

Each structure is given as a SMILES string.

Conditions in all cases: stereoisomer not certain
A short description of series [1]: RP, Waters CORTECS T3, 100 × 2.1 mm, 2.7 µm, 0.3 mL/min, estimated dead time 0.73 min; A: water + 0.1% formic acid, pH 3; B: methanol + 0.1% formic acid, pH 3; gradient (min/%B) 0/0 5/0 25/100 30/100 30.1/0 35/0.
Series [2] in a line: RP, Waters CORTECS T3, 100 × 2.1 mm, 2.7 µm, 0.2 mL/min, estimated dead time 1.1 min; A: water + 0.1% formic acid, pH 3; B: methanol + 0.1% formic acid, pH 3; gradient (min/%B) 0/0 1/0 6/5 30/100 35/100 35.1/0 40/0.
Series [3] is described as follows: RP, Waters CORTECS T3, 100 × 2.1 mm, 2.7 µm, 0.3 mL/min, estimated dead time 0.73 min; A: water + 0.1% formic acid, pH 3; B: methanol + 0.1% formic acid, pH 3; gradient (min/%B) 0/0 1/0 6/5 30/100 35/100 35.1/0 40/0.
Series [4] is described as follows: RP, Thermo Scientific Hypercarb, 150 × 2.1 mm, 5 µm, 0.1 mL/min, estimated dead time 3.3 min; A: water + 0.1% formic acid, pH 3; B: methanol + 0.1% formic acid, pH 3; gradient (min/%B) 0/5 5/5 20/100 35/100 35.1/5 45/5.
Series [5] is described as follows: RP, Waters CORTECS T3, 100 × 2.1 mm, 2.7 µm, 0.15 mL/min, estimated dead time 1.5 min; A: water + 0.1% formic acid, pH 3; B: methanol + 0.1% formic acid, pH 3; gradient (min/%B) 0/5 5/5 25/95 25.1/100 35/100 35.1/5 45/5.
Series [6] in a line: RP, Waters ACQUITY UPLC BEH C18, 100 × 2.1 mm, 1.7 µm, 0.2 mL/min, estimated dead time 1.1 min; A: water + 0.1% formic acid, pH 3; B: methanol + 0.1% formic acid, pH 3; gradient (min/%B) 0/5 5/5 25/100 30/100 30.1/5 35/5.
A short description of series [7]: RP, Waters CORTECS T3, 100 × 2.1 mm, 2.7 µm, 0.25 mL/min, estimated dead time 0.88 min; A: water + 0.1% formic acid, pH 3; B: methanol + 0.1% formic acid, pH 3; gradient (min/%B) 0/5 5/5 25/95 25.1/100 35/100 35.1/5 45/5.
The nature of series [8]: RP, Waters ACQUITY UPLC BEH C18, 100 × 2.1 mm, 1.7 µm, 0.1 mL/min, estimated dead time 2.2 min; A: water + 0.1% formic acid, pH 3; B: methanol + 0.1% formic acid, pH 3; gradient (min/%B) 0/5 5/5 25/95 25.1/100 35/100 35.1/5 45/5.
The nature of series [9]: RP, Waters ACQUITY UPLC BEH C18, 100 × 2.1 mm, 1.7 µm, 0.2 mL/min, estimated dead time 1.1 min; A: water + 0.025% formic acid + 20 mM ammonium acetate + 0.055% ammonium hydroxide, pH 7; B: methanol; gradient (min/%B) 0/5 5/5 25/100 30/100 30.1/5 35/5.
Series [10] can be described thus: HILIC, Merck SeQuant ZIC-HILIC, 150 × 2.1 mm, 5 µm, 0.75 mL/min, estimated dead time 0.44 min; A: water + 10 mM ammonium formate, pH 6; B: 5% water + 95% acetonitrile + 10 mM ammonium formate, pH 6; gradient (min/%B) 0/95 5/95 20/57 25/57 30/95 40/95.
Series [11] in a line: HILIC, Merck SeQuant ZIC-HILIC, 150 × 2.1 mm, 5 µm, 0.75 mL/min, estimated dead time 0.44 min; A: water + 0.1% acetic acid + 10 mM ammonium acetate, pH 4; B: 5% water + 95% acetonitrile + 0.1% acetic acid + 10 mM ammonium acetate, pH 4; gradient (min/%B) 0/95 5/95 20/57 25/57 30/95 40/95.
The nature of series [12]: HILIC, Waters XBridge BEH Amide, 100 × 2.1 mm, 2.5 µm, 0.5 mL/min, estimated dead time 0.44 min; A: water + 0.1% acetic acid + 10 mM ammonium acetate, pH 4; B: 5% water + 95% acetonitrile + 0.1% acetic acid + 10 mM ammonium acetate, pH 4; gradient (min/%B) 0/95 5/95 20/57 25/57 30/95 40/95.
Series [13] in a line: RP, Waters CORTECS T3, 100 × 2.1 mm, 2.7 µm, 0.2 mL/min, estimated dead time 1.1 min; A: water + 0.1% formic acid, pH 3; B: methanol + 0.1% formic acid, pH 3; gradient (min/%B) 0/5 5/5 25/95 25.1/100 35/100 35.1/5 45/5.
A short description of series [14]: RP, Waters ACQUITY UPLC BEH C18, 100 × 2.1 mm, 1.7 µm, 0.1 mL/min, estimated dead time 2.2 min; A: water + 0.1% formic acid, pH 3; B: methanol + 0.1% formic acid, pH 3; gradient (min/%B) 0/5 5/5 25/100 30/100 30.1/5 35/5.
Series [15] can be described thus: RP, Waters CORTECS T3, 100 × 2.1 mm, 2.7 µm, 0.3 mL/min, estimated dead time 0.73 min; A: water + 0.1% formic acid, pH 3; B: methanol + 0.1% formic acid, pH 3; gradient (min/%B) 0/5 5/5 25/100 30/100 30.1/5 35/5.
The nature of series [16]: RP, Waters CORTECS T3, 100 × 2.1 mm, 2.7 µm, 0.3 mL/min, estimated dead time 0.73 min; A: water + 0.1% formic acid, pH 3; B: methanol + 0.1% formic acid, pH 3; gradient (min/%B) 0/0 5/0 25/100 30/100 30.1/0 35/0. The source holds these as a separate data set.
Series [17] in a line: RP, Waters CORTECS T3, 100 × 2.1 mm, 2.7 µm, 0.1 mL/min, estimated dead time 2.2 min; A: water + 0.1% formic acid, pH 3; B: methanol + 0.1% formic acid, pH 3; gradient (min/%B) 0/0 1/0 6/5 30/100 35/100 35.1/0 40/0.
Series [18] can be described thus: RP, Waters CORTECS T3, 100 × 2.1 mm, 2.7 µm, 0.3 mL/min, estimated dead time 0.73 min; A: water + 0.1% formic acid, pH 3; B: methanol + 0.1% formic acid, pH 3; gradient (min/%B) 0/0 1/0 6/5 30/100 35/100 35.1/0 40/0. This is another data set of the same source.
Series [19] can be described thus: RP, Waters CORTECS T3, 100 × 2.1 mm, 2.7 µm, 0.25 mL/min, estimated dead time 0.88 min; A: water + 0.1% formic acid, pH 3; B: methanol + 0.1% formic acid, pH 3; gradient (min/%B) 0/0 1/0 6/5 30/100 35/100 35.1/0 40/0.
Series [20] can be described thus: RP, Waters CORTECS T3, 100 × 2.1 mm, 2.7 µm, 0.3 mL/min, estimated dead time 0.73 min; A: water + 0.1% formic acid, pH 3; B: methanol + 0.1% formic acid, pH 3; gradient (min/%B) 0/5 5/5 25/95 25.1/100 35/100 35.1/5 45/5.
A short description of series [21]: RP, Waters CORTECS T3, 100 × 2.1 mm, 2.7 µm, 0.2 mL/min, estimated dead time 1.1 min; A: water + 0.045% formic acid + 0.11% ammonium hydroxide, pH 7; B: methanol; gradient (min/%B) 0/5 5/5 25/95 25.1/100 35/100 35.1/5 45/5.
A short description of series [22]: RP, Waters ACQUITY UPLC BEH C18, 100 × 2.1 mm, 1.7 µm, 0.1 mL/min, estimated dead time 2.2 min; A: water + 0.045% formic acid + 0.11% ammonium hydroxide, pH 7; B: methanol; gradient (min/%B) 0/5 5/5 25/95 25.1/100 35/100 35.1/5 45/5.
The nature of series [23]: RP, Waters CORTECS T3, 100 × 2.1 mm, 2.7 µm, 0.2 mL/min, estimated dead time 1.1 min; A: water + 0.1% formic acid, pH 3; B: methanol + 0.1% formic acid, pH 3; gradient (min/%B) 0/0 1/0 6/5 30/100 35/100 35.1/0 40/0. The source holds these as a separate data set.
The nature of series [24]: RP, Waters CORTECS T3, 100 × 2.1 mm, 2.7 µm, 0.15 mL/min, estimated dead time 1.5 min; A: water + 0.1% formic acid, pH 3; B: methanol + 0.1% formic acid, pH 3; gradient (min/%B) 0/0 1/0 6/5 30/100 35/100 35.1/0 40/0.
Series [25] in a line: RP, Waters ACQUITY UPLC BEH C18, 100 × 2.1 mm, 1.7 µm, 0.2 mL/min, estimated dead time 1.1 min; A: water + 0.025% formic acid + 20 mM ammonium acetate + 0.055% ammonium hydroxide, pH 7; B: methanol; gradient (min/%B) 0/5 5/5 25/100 30/100 30.1/5 35/5. This is another data set of the same source.

On to `CC(=O)NC(CCC(=O)O)C(=O)O` (racemic) [N-ACETYL-DL-GLUTAMIC ACID], for which the LC retention time in [1] was 2.22 min; in series [2], 3.1 min; in series [3], 2.22 min; in [4], 24 min; in [5], 2.89 min; in [6] it was 2.27 min. The LC retention time in [7] is 1.77 min; in [8], 4.43 min; in series [9] it was 1.36 min; in [10], 14 min; in series [11], 13.6 min; in series [12] it was 13.6 min.

In the case of `Nc1nc2c(ncn2C2OC(CO)C(O)C2O)c(=O)[nH]1` (stereo unspecified) [GUANOSINE], the LC retention time in series [2] is 7.02 min; in series [3] it was 5.43 min; in [13] it was 10.9 min; in series [5], 4.79 min; in series [6], 3.31 min; in series [7], 2.95 min. Further, the LC retention time in series [14] is 2.74 min; in [8] it was 2.7 min; in series [9], 1.76 min; in series [10] it was 10.5 min; in series [11] it was 10.1 min; in [12] it was 10.3 min.

In the case of `CC(=O)N[C@@H](CC(C)C)C(=O)O` [N-ACETYL-L-LEUCINE], the LC retention time in [1] was 12.2 min; in series [2], 14.6 min; in [3], 12.8 min; in series [13], 18.4 min; in series [5] it was 14.3 min; in [6], 13.3 min. Further, the LC retention time in [7] was 12 min; in series [8], 17.2 min; in series [9] it was 6.59 min; in series [10] it was 6.56 min; in series [11], 5.95 min; in series [12], 7.4 min.

For `CC(=O)N[C@@H](Cc1ccccc1)C(=O)O` [N-ACETYL-L-PHENYLALANINE], the LC retention time in series [15] is 11.8 min; in [16], 12.8 min; in series [1], 12.8 min; in series [17], 13.6 min; in [2] it was 15.3 min; in series [3], 13.6 min. The LC retention time was 13.6 min in series [18]; 14.4 min in [19]; 19 min in series [13]; 12 min in series [20]; 14.9 min in [5]; 13.8 min in [6]. Further, the LC retention time is 12.7 min in [7]; 17.3 min in series [14]; 9.59 min in series [21]; 17.7 min in [8]; 13.6 min in series [22]; 8.81 min in series [9]. For the same compound, the LC retention time in [10] was 6.61 min; in [11] it was 5.57 min; in [12], 6.98 min.

For the compound `CC(=O)NCCc1c[nH]c2ccc(O)cc12` [N-ACETYLSEROTONIN], the LC retention time was 9.2 min in [15]; 10.4 min in series [16]; 12.1 min in series [23]; 10.6 min in series [17]; 13.3 min in series [24]; 10.8 min in series [18]. In addition, the LC retention time in [19] is 11.3 min; in [13], 15.3 min; in series [20] it was 9.27 min; in [5], 11.8 min; in [14] it was 13.6 min; in series [21] it was 10.7 min. Besides, the LC retention time in [8] was 13.7 min; in series [22], 13.7 min; in [9], 10.2 min; in series [25], 10.6 min; in series [10], 1.15 min; in series [11], 1.09 min. Also, the LC retention time in series [12] was 0.95 min.
